Molecular target: T1, Angiotensin-converting enzyme (Oryctolagus cuniculus, UniProt P12822)
T1 sequence (P12822 whole entry): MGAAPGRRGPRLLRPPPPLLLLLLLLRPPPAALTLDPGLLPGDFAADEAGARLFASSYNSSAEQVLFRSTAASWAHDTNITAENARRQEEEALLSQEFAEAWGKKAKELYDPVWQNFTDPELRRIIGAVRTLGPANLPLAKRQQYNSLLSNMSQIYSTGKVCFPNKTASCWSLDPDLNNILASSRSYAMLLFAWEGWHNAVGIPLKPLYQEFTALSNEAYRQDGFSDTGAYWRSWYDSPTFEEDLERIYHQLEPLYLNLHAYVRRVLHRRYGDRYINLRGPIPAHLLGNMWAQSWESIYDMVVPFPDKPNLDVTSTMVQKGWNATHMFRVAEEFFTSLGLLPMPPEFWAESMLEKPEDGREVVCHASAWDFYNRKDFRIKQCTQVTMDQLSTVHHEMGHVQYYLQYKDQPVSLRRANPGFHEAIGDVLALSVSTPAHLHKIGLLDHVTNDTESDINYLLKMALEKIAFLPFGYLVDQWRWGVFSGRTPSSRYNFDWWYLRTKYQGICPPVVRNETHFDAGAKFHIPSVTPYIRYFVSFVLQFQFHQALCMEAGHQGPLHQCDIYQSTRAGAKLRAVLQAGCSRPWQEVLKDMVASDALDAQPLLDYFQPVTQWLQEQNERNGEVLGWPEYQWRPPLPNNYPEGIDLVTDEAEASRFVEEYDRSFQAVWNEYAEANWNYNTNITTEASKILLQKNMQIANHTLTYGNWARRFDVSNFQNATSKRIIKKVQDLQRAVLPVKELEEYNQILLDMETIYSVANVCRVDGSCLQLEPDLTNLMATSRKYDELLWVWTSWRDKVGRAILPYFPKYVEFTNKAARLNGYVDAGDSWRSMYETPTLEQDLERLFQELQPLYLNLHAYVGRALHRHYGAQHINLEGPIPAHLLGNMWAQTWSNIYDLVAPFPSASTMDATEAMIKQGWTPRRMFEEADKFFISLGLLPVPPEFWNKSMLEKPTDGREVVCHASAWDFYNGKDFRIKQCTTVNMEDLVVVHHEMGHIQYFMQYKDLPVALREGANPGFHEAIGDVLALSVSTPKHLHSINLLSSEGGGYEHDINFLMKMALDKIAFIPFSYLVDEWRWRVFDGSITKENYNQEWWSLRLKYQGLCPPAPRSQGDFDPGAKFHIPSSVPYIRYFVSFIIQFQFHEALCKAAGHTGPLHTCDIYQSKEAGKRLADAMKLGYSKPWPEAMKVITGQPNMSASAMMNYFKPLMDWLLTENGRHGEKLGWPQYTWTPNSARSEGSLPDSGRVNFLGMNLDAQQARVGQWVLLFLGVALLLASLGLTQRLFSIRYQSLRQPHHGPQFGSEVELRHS
Test: In vitro inhibitory activity against Angiotensin I converting enzyme in rabbit lung, using hippuryl-histidyl-leucine as substrate
Conditions: not given

Point of comparison: `C[C@H](CS)C(=O)N1C(=O)CC[C@H]1C(=O)O`, IC50 0.009 µM. Against it:
- CN(C(=O)CCS)[C@@H](Cc1ccccc1)C(=O)O — 3400-fold higher, 31 µM

Same assay, conditions: read-out: I50

Point of comparison: `O=C(O)CCC(O)CCS` (stereo unspecified), IC50 1200 µM. Against it:
- O=C(O)[C@@H]1CCCN1C(=O)CCS — 4800-fold lower, 0.25 µM
- O=C(O)CN1CCCC(CS)C1=O (stereo unspecified) — 120-fold lower, 10 µM
- O=C(O)[C@@H]1CCCN1CCCS — 5-fold lower, 240 µM
- O=C(CCS)N[C@@H](Cc1ccccc1)C(=O)O — 1400-fold lower, 0.85 µM
- O=C(O)[C@@H]1CC[C@H]1C(=O)CCS — 32-fold lower, 37 µM
- O=C(O)CC(=O)NCCS — 2.1-fold lower, 580 µM
- C[C@@H](CS)C(=O)[C@@H]1CCCC[C@H]1C(=O)O — 320-fold lower, 3.7 µM
- O=C(O)[C@@H]1CCCC[C@H]1C(=O)CCS — 710-fold lower, 1.7 µM
- O=C(O)C/C=C/CCS — 1.7-fold lower, 720 µM
- O=C(O)[C@@H]1CCC(=O)N1CCCS — 1.9-fold lower, 640 µM
- O=C(O)CNC(=O)CCS — 430-fold lower, 2.8 µM
- CN(CC(=O)O)C(=O)CCS — 400-fold lower, 3 µM
- O=C(O)CCCCCS — within 1.5-fold, 1100 µM
- O=C(O)CCC(=O)CCS — 110-fold lower, 11 µM
- O=C(CCS)O[C@@H](Cc1ccccc1)C(=O)O — 1700-fold lower, 0.7 µM
- O=C(O)[C@@H]1CCCN1S(=O)(=O)CCS — 110-fold lower, 11 µM
- O=C(O)[C@@H]1CCC[C@H]1C(=O)CCS — 500-fold lower, 2.4 µM
- O=C(CCS)[C@H]1CCCC[C@H]1C(=O)O — 860-fold lower, 1.4 µM
- C[C@H](CS)C(=O)N1CCCC[C@H]1C(=O)O — 9200-fold lower, 0.13 µM
- O=C(O)[C@@H]1CCN1C(=O)CCS — 710-fold lower, 1.7 µM
- O=C(O)[C@@H]1CCCCN1C(=O)CCS — 2600-fold lower, 0.46 µM
- O=C(CCS)[C@H]1CC[C@H]1C(=O)O — 35-fold lower, 34 µM
- C[C@H](CS)C(=O)[C@@H]1CCCC[C@H]1C(=O)O — 1600-fold lower, 0.74 µM

Source: ChEMBL document CHEMBL1122021, “Angiotensin-converting enzyme inhibitors: importance of the amide carbonyl of mercaptoacyl amino acids for hydrogen bonding to the enzyme” (J Med Chem, 1982)
